Target: T1, human GC-A (Homo sapiens, UniProt P16066)
T1 construct: host or cells: HEK293
T1 sequence (P16066 33-1061): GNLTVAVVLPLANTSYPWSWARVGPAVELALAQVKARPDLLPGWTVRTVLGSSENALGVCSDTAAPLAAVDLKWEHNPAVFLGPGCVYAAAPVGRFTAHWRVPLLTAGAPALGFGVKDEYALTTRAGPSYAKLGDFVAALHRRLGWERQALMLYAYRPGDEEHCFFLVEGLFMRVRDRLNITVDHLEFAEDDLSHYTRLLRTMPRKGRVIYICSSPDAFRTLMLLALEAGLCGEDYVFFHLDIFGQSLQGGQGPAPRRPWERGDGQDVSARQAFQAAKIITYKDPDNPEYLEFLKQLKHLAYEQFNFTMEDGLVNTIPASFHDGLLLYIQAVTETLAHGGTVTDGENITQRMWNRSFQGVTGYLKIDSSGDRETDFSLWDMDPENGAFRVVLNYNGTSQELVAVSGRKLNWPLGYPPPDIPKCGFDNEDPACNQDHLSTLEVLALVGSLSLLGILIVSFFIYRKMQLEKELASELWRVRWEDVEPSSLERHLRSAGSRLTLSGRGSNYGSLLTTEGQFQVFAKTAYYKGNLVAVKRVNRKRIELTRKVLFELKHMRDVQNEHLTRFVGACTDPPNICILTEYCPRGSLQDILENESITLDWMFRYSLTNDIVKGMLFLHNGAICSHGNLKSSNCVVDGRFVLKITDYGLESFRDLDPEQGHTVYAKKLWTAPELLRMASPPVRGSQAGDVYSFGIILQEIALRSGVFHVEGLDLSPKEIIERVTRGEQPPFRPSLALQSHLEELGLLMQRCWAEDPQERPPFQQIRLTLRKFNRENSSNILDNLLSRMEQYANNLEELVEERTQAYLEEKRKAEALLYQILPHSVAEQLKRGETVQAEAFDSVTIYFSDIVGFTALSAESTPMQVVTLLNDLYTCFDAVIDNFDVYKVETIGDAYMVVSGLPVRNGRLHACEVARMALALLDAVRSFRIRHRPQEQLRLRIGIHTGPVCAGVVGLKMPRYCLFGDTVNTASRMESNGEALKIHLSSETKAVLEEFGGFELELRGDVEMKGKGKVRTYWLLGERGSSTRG
T1 sequence (P01160 124-151 partner limits assumed): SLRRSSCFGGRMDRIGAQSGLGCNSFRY
Assay: EC50 and Emax cGMP determination, HTRF, human GC-A overexpressing HEK293 cells
Type: cell-based
Conditions: HEK293 GC-A cells
Procedure: Test compounds were evaluated for potentiation of cGMP in human GC-A overexpressing HEK293 cells (Cardiorenal Research Laboratory, Mayo Clinic). Test compounds at 10 mM DMSO stock concentration were dispensed into 384 well small volume white plates using Tecan D300e digital dispenser starting at 5 μM or 40 μM concentration and diluted 2-fold for 10-point concentration response. Wells were backfilled with DMSO such that the final concentration of DMSO in all wells was maintained at 0.3% DMSO. Atrial natriuretic peptide (ANP, Phoenix Pharmaceuticals) ANP was prepared as working stock aliquots at 5 μM in phosphate-buffered solution (PBS) with 0.1% bovine serum albumin (BSA) and diluted to […] in buffer plus Tween20 at 0.3% and added to plates to a final concentration equivalent to EC20 ANP in the cGMP assay. GC-A cells in suspension ([…]) in OptiMem media (ThermoFisher 11058-021) supplemented with 2% fetal bovine serum were plated at 1×10^6 cells/mL and assay plates were spun at 1000 rpm for 30 sec and incubated at room temperature for 30 min. GC-A-mediated activation of cGMP production was measured using cGMP CisBio detection homogenous time-resolved florescence (HTRF) competition assay using labeled-cGMP in human GC-A-overexpressing HEK293 cells. 5 μL of d-2 acceptor was dispensed into each well followed by addition of 5 μL of Anti-cGMP Eu-Cryptate antibody donor and plates were spun at 1000 rpm for 30 sec and incubated in the dark at room temperature for 1 hr. HTRF florescence was read on the ClarioStar microplate reader (BMG). A 100% response was determined from wells in the absence of compound and presence of saturating concentration of ANP (10 nM), and 0) % response was determined from wells containing an EC20 concentration of ANP determined for each new lot of ANP. Concentration-response curves for test compounds were analyzed by […] analysis using GraphPad software to determine EC50 and Emax values.

Structure (SMILES): CN(C)CCN1CCC[C@H](C(=O)Nc2nc3c(F)cc(F)cc3s2)C1 [Compound 1, (S)-N-(4,6-difluorobenzo[d]thiazol-2-yl)-1-(2-(dimethylamino)ethyl) piperidine-3-carboxamide]
- potency in potentiating ANP-mediated cGMP generation (comparison between forms/enantiomers): more potent

Source: patent US20250026746A1, “ENHANCERS OF PARTICULATE GUANYLYL CYCLASE RECEPTOR A” (Mayo Foundation for Medical Education and Research, priority 2021, published 2025)
